Data reported in US10899753B2, “Inhibiting agents for Bruton's tyrosine kinase” (BIOGEN MA INC., priority 2018, dated 2021).

How the values were obtained:
[1] = molecular target: T1, BTK (Homo sapiens (Human), UniProt Q06187); experiment: In Vitro PD Assay in Human Whole Blood (pBTK assay); type: cell-based; conditions: human heparinized whole blood, 37° C. for 30 min, total BTK capture and phosphotyrosine detection (ECL)
Protocol: In Vitro PD Assay in Human Whole Blood
Human heparinized venous blood was purchased from Bioreclamation, Inc. or SeraCare Life Sciences and shipped overnight. Whole blood was aliquoted into 96-well plate and “spiked” with serial dilutions of test compound in DMSO or with DMSO without drug. The final concentration of DMSO in all wells was 0.1%. The plate was incubated at 37° C. for 30 min. Lysis buffer containing protease and phosphatase inhibitors was added to the drug-containing samples and one of the DMSO-only samples (+PPi, high control), while lysis buffer containing protease inhibitors was added to the other DMSO-only samples (−PPi, low control). All of the lysed whole blood samples were subjected to the total BTK capture and phosphotyrosine detection method described in US20160311802, incorporated herein by reference.

[2] = molecular target: T1, BTK; experiment: In Vitro BTK Kinase Assay: BTK-POLYGAT-LS ASSAY; type: biochemical; conditions: fluorescein-labeled polyGAT peptide 100 nM, BTK enzyme 0.25 nM, 30 minutes, TRF
Protocol: In Vitro BTK Kinase Assay: BTK-POLYGAT-LS ASSAY
The purpose of the BTK in vitro assay is to determine compound potency against BTK through the measurement of IC50. […] For a typical assay, a […] aliquot of a ATP/peptide master mix (final concentration; ATP […], polyGAT 100 nM) in kinase buffer (10 mM Tris-HCl pH 7.5, 10 mM MgCl2, 200 μM Na3PO4, 5 mM DTT, 0.01% Triton X-100, and 0.2 mg/ml casein) is added to each well. […] The assay is incubated for 30 minutes before being stopped with 28 μL of a 50 mM EDTA solution. […] The plate is covered and incubated for 45 minutes at room temperature. Time resolved fluorescence (TRF) on Molecular Devices M5 (332 nm excitation; 488 nm emission; 518 nm fluorescein emission) is measured.

T1 sequence (Q06187 whole entry): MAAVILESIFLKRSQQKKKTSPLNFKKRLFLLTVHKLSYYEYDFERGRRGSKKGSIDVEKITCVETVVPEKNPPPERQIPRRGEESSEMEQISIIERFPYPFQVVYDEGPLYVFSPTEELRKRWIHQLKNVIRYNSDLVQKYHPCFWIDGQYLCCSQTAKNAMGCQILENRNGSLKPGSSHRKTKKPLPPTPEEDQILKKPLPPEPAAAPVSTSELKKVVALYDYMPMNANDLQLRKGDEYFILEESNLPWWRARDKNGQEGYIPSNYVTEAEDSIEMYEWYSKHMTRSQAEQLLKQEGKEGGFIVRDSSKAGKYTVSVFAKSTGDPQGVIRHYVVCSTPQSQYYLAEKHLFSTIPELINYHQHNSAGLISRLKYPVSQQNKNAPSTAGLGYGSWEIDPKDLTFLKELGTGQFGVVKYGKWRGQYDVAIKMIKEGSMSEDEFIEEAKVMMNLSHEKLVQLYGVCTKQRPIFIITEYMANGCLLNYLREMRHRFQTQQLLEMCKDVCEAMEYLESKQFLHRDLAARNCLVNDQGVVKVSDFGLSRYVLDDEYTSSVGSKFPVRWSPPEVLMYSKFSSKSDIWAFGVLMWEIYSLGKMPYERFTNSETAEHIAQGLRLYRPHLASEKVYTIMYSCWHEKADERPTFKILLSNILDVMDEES

Structure (SMILES)	IC50 [1]	IC50 [2]
Cn1cc(Nc2ncnc(-c3ccc(CNC(=O)c4noc(C(C)(C)C)n4)c(C(F)(F)F)c3)n2)cn1 [Compound 17, 5-(tert-butyl)-N-(4-(4-((1-methyl-1H-pyrazol-4-yl)amino)-1,3,5-triazin-2-yl)-2-(trifluoromethyl)benzyl)-1,2,4-oxadiazole-3-carboxamide]	100 to 500 nM	< 1 nM
Cn1ccc(Nc2ncnc(-c3ccc(CNC(=O)c4nc(C(C)(C)C)no4)c(C(F)(F)F)c3F)n2)n1 [Compound 20, 3-(tert-butyl)-N-(3-fluoro-4-(4-((1-methyl-1H-pyrazol-3-yl)amino)-1,3,5-triazin-2-yl)-2-(trifluoromethyl)benzyl)-1,2,4-oxadiazole-5-carboxamide]	500 to 10000 nM	< 1 nM
Cn1ccc(Nc2ncnc(-c3ccc(CNC(=O)c4noc(C(C)(C)C)n4)c(Cl)c3F)n2)n1 [Compound 21, 5-(tert-butyl)-N-(2-chloro-3-fluoro-4-(4-((1-methyl-1H-pyrazol-3-yl)amino)-1,3,5-triazin-2-yl)benzyl)-1,2,4-oxadiazole-3-carboxamide]	100 to 500 nM	< 1 nM
Cn1ccc(Nc2ncnc(-c3ccc(CNC(=O)c4nc(C(C)(C)C)no4)c(Cl)c3F)n2)n1 [Compound 22, 3-(tert-butyl)-N-(2-chloro-3-fluoro-4-(4-((1-methyl-1H-pyrazol-3-yl)amino)-1,3,5-triazin-2-yl)benzyl)-1,2,4-oxadiazole-5-carboxamide]	500 to 10000 nM	< 1 nM
Cn1ccc(Nc2ncnc(-c3ccc4c(c3)CCCC[C@H]4NC(=O)c3noc(C(C)(C)C)n3)n2)n1 [Compound 23, 5-tert-butyl-N-[(5R)-2-[4-[(1-methylpyrazol-3-yl)amino]-1,3,5-triazin-2-yl]-6,7,8,9-tetrahydro-5H-benzo[7]annulen-5-yl]-1,2,4-oxadiazole-3-carboxamide]	100 to 500 nM	< 1 nM
Cc1c(CNC(=O)c2nn(C(C)(C)C)cc2F)ccc(-c2ncnc(Nc3cnn(C)c3)n2)c1F [Compound 27, 1-(tert-butyl)-4-fluoro-N-(3-fluoro-2-methyl-4-(4-((1-methyl-1H-pyrazol-4-yl)amino)-1,3,5-triazin-2-yl)benzyl)-1H-pyrazole-3-carboxamide]	100 to 500 nM	< 1 nM
Cn1cc(Nc2ncnc(-c3ccc(CNC(=O)c4noc(C(C)(C)C)n4)c(Cl)c3F)n2)cn1 [Compound 28, 5-(tert-butyl)-N-(2-chloro-3-fluoro-4-(4-((1-methyl-1H-pyrazol-4-yl)amino)-1,3,5-triazin-2-yl)benzyl)-1,2,4-oxadiazole-3-carboxamide]	< 100 nM	< 1 nM
Cn1cc(Nc2ncnc(-c3ccc(CNC(=O)c4nc(C(C)(C)C)no4)c(Cl)c3F)n2)cn1 [Compound 29, 3-(tert-butyl)-N-(2-chloro-3-fluoro-4-(4-((1-methyl-1H-pyrazol-4-yl)amino)-1,3,5-triazin-2-yl)benzyl)-1,2,4-oxadiazole-5-carboxamide]	< 100 nM	< 1 nM
Cn1cc(Nc2ncnc(-c3ccc(CNC(=O)c4noc(C5(C)CC5)n4)c(Cl)c3F)n2)cn1 [Compound 30, N-(2-chloro-3-fluoro-4-(4-((1-methyl-1H-pyrazol-4-yl)amino)-1,3,5-triazin-2-yl)benzyl)-5-(1-methylcyclopropyl)-1,2,4-oxadiazole-3-carboxamide]	< 100 nM	< 1 nM
Cc1c(CNC(=O)c2ncc(C(C)(C)C)o2)ccc(-c2ncnc(Nc3cnn(C)c3)n2)c1F [Compound 31, 5-(tert-butyl)-N-(3-fluoro-2-methyl-4-(4-((1-methyl-1H-pyrazol-4-yl)amino)-1,3,5-triazin-2-yl)benzyl)oxazole-2-carboxamide]	500 to 10000 nM	< 1 nM
Cc1c(CNC(=O)c2noc(C3(C)CC3)n2)ccc(-c2ncnc(Nc3cnn(C)c3)n2)c1F [Compound 32, N-(3-fluoro-2-methyl-4-(4-((1-methyl-1H-pyrazol-4-yl)amino)-1,3,5-triazin-2-yl)benzyl)-5-(1-methylcyclopropyl)-1,2,4-oxadiazole-3-carboxamide]	< 100 nM	< 1 nM
Cn1cc(Nc2ncnc(-c3ccc4c(c3)CCCC[C@H]4NC(=O)c3noc(C(C)(C)C)n3)n2)cn1 [Compound 33, 5-tert-butyl-N-[(5R)-2-[4-[(1-methylpyrazol-4-yl)amino]-1,3,5-triazin-2-yl]-6,7,8,9-tetrahydro-5H-benzo[7]annulen-5-yl]-1,2,4-oxadiazole-3-carboxamide]	< 100 nM	< 1 nM
Cn1cc(Nc2ncnc(-c3ccc4c(c3)CCCC[C@H]4NC(=O)c3nc(C(C)(C)C)no3)n2)cn1 [Compound 34, 3-tert-butyl-N-[(5R)-2-[4-[(1-methylpyrazol-4-yl)amino]-1,3,5-triazin-2-yl]-6,7,8,9-tetrahydro-5H-benzo[7]annulen-5-yl]-1,2,4-oxadiazole-5-carboxamide]	< 100 nM	< 1 nM
Cn1cc(Nc2ncnc(-c3ccc4c(c3)CCCC[C@H]4NC(=O)c3cnc(C(C)(C)C)o3)n2)cn1 [Compound 35, 2-tert-butyl-N-[(5R)-2-[4-[(1-methylpyrazol-4-yl)amino]-1,3,5-triazin-2-yl]-6,7,8,9-tetrahydro-5H-benzo[7]annulen-5-yl]-oxazole-5-carboxamide]	100 to 500 nM	< 1 nM
Cc1c(CNC(=O)c2cnn(C(C)(C)C)c2)ccc(-c2ncnc(Nc3cnn(C)c3)n2)c1F [Compound 36, 1-(tert-butyl)-N-(3-fluoro-2-methyl-4-(4-((1-methyl-1H-pyrazol-4-yl)amino)-1,3,5-triazin-2-yl)benzyl)-1H-pyrazole-4-carboxamide]	100 to 500 nM	< 1 nM
Cc1cc(-c2ncnc(Nc3cnn(C)c3)n2)ccc1CNC(=O)c1cnn(C(C)(C)C)c1 [Compound 37, 1-(tert-butyl)-N-(2-methyl-4-(4-((1-methyl-1H-pyrazol-4-yl)amino)-1,3,5-triazin-2-yl)benzyl)-1H-pyrazole-4-carboxamide]	100 to 500 nM	< 1 nM
Cc1cc(-c2ncnc(Nc3cnn(C)c3)n2)ccc1CNC(=O)c1nnn(C(C)(C)C)n1 [Compound 39, 2-(tert-butyl)-N-(2-methyl-4-(4-((1-methyl-1H-pyrazol-4-yl)amino)-1,3,5-triazin-2-yl)benzyl)-2H-tetrazole-5-carboxamide]	< 100 nM	< 1 nM
Cc1cc(-c2ncnc(Nc3cnn(C)c3)n2)ccc1CNC(=O)c1noc(C2(C)CC2)n1 [Compound 40, N-(2-methyl-4-(4-((1-methyl-1H-pyrazol-4-yl)amino)-1,3,5-triazin-2-yl)benzyl)-5-(1-methylcyclopropyl)-1,2,4-oxadiazole-3-carboxamide]	100 to 500 nM	< 1 nM
Cc1cc(-c2ncnc(Nc3ccn(C)n3)n2)ccc1CNC(=O)c1cc(C(C)(C)C)on1 [Compound 42, 5-(tert-butyl)-N-(2-methyl-4-(4-((1-methyl-1H-pyrazol-3-yl)amino)-1,3,5-triazin-2-yl)benzyl)isoxazole-3-carboxamide]	500 to 10000 nM	1 to 10 nM
Cc1cc(-c2ncnc(Nc3ccn(C)n3)n2)ccc1CNC(=O)c1cc(C(C)(C)C)no1 [Compound 43, 3-(tert-butyl)-N-(2-methyl-4-(4-((1-methyl-1H-pyrazol-3-yl)amino)-1,3,5-triazin-2-yl)benzyl)isoxazole-5-carboxamide]	500 to 10000 nM	1 to 10 nM
Cc1cc(-c2ncnc(Nc3ccn(C)n3)n2)ccc1CNC(=O)c1noc(C(C)(C)CF)n1 [Compound 44, 5-(1-fluoro-2-methylpropan-2-yl)-N-(2-methyl-4-(4-((1-methyl-1H-pyrazol-3-yl)amino)-1,3,5-triazin-2-yl)benzyl)-1,2,4-oxadiazole-3-carboxamide]	100 to 500 nM	1 to 10 nM
Cc1c(CNC(=O)c2noc(C(C)(C)CF)n2)ccc(-c2ncnc(Nc3ccn(C)n3)n2)c1F [Compound 45, N-(3-fluoro-2-methyl-4-(4-((1-methyl-1H-pyrazol-3-yl)amino)-1,3,5-triazin-2-yl)benzyl)-5-(1-fluoro-2-methylpropan-2-yl)-1,2,4-oxadiazole-3-carboxamide]	100 to 500 nM	< 1 nM
Cc1c(CNC(=O)c2nc(C3(CF)CC3)no2)ccc(-c2ncnc(Nc3ccn(C)n3)n2)c1F [Compound 46, N-(3-fluoro-2-methyl-4-(4-((1-methyl-1H-pyrazol-3-yl)amino)-1,3,5-triazin-2-yl)benzyl)-3-(1-(fluoromethyl)cyclopropyl)-1,2,4-oxadiazole-5-carboxamide]	500 to 10000 nM	1 to 10 nM
Cc1c(CNC(=O)c2nc(C3(CF)CC3)no2)ccc(-c2ncnc(Nc3cnn(C)c3)n2)c1F [Compound 47, N-(3-fluoro-2-methyl-4-(4-((1-methyl-1H-pyrazol-4-yl)amino)-1,3,5-triazin-2-yl)benzyl)-3-(1-(fluoromethyl)cyclopropyl)-1,2,4-oxadiazole-5-carboxamide]	< 100 nM	< 1 nM
